Results from patent publication US4111955A, “N-Trihalomethanesulfenyl carbamoyloximino di-sulfur heterocyclic compounds” (priority 1976, dated 1978).
Values after ≈ are worked out from the molar mass of the structure shown.

Key:
[1] = test system: house flies (Musca domestica, L.); assay: Fly Bait Test; format: in vivo; set-up: key to pesticidal activity rating, Housefly: A: excellent control; B: partial control; C: no control
Protocol: Four to 6 day old adult house flies (Musca domestica, L.), reared according to the specifications of the Chemical Specialities Manufacturing Association (Blue Book, McNair-Dorland Co., N.Y. 1954; pages 243-244, 261) under controlled conditions of 80°±5° F. and 50±5 percent relative humidity, were the test insects. The flies were immobilized by anesthetizing with carbon dioxide and twenty five immobilized individuals, males and females, were transferred to a cage consisting of a standard food strainer about 5 inches in diameter which was inverted over a wrapping-paper-covered surface. The test compounds were formulated by diluting the stock suspension with a 10 percent (by weight) sugar solution to give a suspension containing 500 parts of test compound per million parts of final formulation, by weight. Ten milliliters of the test formulation were added to a souffle cup containing a 1-inch square of an absorbent cotton pad. This bait cup was introduced and centered on the blotting paper under the food strainer prior to admitting the anesthetized flies. The caged flies were allowed to feed on the bait for 24 hours, at a temperature of 80°±5° F. and the relative humidity of 50±5 percent.
(§1) In these tests the pesticidal activity of the compounds against aphid, mite, Southern Armyworm, Bean Beetle and House fly was rated as follows:
(§2) The LD50 values shown in the above Table II were determined by testing the compositions over an appropriate concentration range obtained by serial dilution of the stock suspension with water. The percent kill was plotted on log-probit graph paper versus parts per million concentration, and the LD50 read from an eye-fitted line drawn through the resultant points.

[2] = test system: southern armyworm (Prodenia eridania, (Cram.)); assay: Southern Armyworm Leaf Spray Test; format: in vivo; set-up: key to pesticidal activity rating, Armyworm: A: excellent control; B: partial control; C: no control
Protocol: Larvae of the southern armyworm (Prodenia eridania, (Cram.)), reared on Tendergreen bean plants at a temperature of 80°±5° F. and a relative humidity of 50±5 percent, constituted the test insects.
The test compounds were formulated by diluting the stock suspension with water to give a suspension containing 500 parts of test compound per million parts of final formulation. Potted Tendergreen bean plants of standard height and age were placed on a revolving turntable and sprayed with 100-110 milliliters of test compound formulation by use of a DeVilbiss spray gun set at 10 psig air pressure. This application, which lasted 25 seconds, was sufficient to wet plants to run-off. As a control, 100-110 milliliters of a water-acetone-emulsifier solution containing no test compound were also sprayed on infested plants. When dry, the paired leaves were separated and each one was placed in a 9 centimeter Petri dish lined with moistened filter paper. Five randomly selected larvae were introduced into each dish and the dishes were closed. The closed dishes were labeled and held at 80°-85° F. for 3 days. Although the larvae could easily consume the whole leaf within 24 hours, no more food was added. Larvae which were unable to move the length of the body, even upon stimulation by prodding, were considered dead. Percent mortality was recorded for various concentration levels.
as §1, §2

## CN(SC(Cl)(Cl)Cl)C(=O)ON=C1CSCCS1 [2-[(N-METHYL-N-TRICHLOROMETHANESULFENYL)-CARBAMOYLOXIMINO]-1,4-DITHIANE]
[1]; 500 parts per million, 24 hours
  pesticidal activity rating, Housefly: A
[1]; Musca domestica, 24 h, Table II, read-out: Insect Toxicity, LD50, House fly
  LC50: 2 µg/mL (≈ 5.62 µM)
[2]; 500 parts per million, 3 days
  pesticidal activity rating, Armyworm: A
[2]; Spodoptera eridania, 72 h, Table II, read-out: Insect Toxicity, LD50, Armyworm
  LC50: 52 µg/mL (≈ 146 µM)
